Data set [1] in a line: Fold resistance, ratio of EC50 for antiviral activity against drug-resistant HIV-1 E138K mutant infected in human MT4 cells to EC50 for antiviral activity against […] HIV-1 infected in human MT4 cells. It is filed as functional.
Data set [2] is described as follows: Cytotoxicity against human MT4 cells assessed as cell growth inhibition incubated for 5 days by MTT assay. The data set is classed as toxicity, cell-based. The conditions noted are these: time 5 day.
Data set [3] concerns Human immunodeficiency virus 1. The experiment in a line: Antiviral activity against […] HIV-1 infected in human MT4 cells assessed as reduction in virus-induced cytopathic effect incubated for 5 days by MTT assay. The data set is classed as functional, organism-based. The note with it: Human immunodeficiency virus 1, MT4, 120 h.
In data set [4] the test system is Human immunodeficiency virus 1. Description: Antiviral activity against drug-resistant HIV-1 E138K mutant infected in human MT4 cells assessed as reduction in virus-induced cytopathic effect incubated for 5 days by MTT assay. The data set is classed as functional, organism-based. The conditions noted are these: Human immunodeficiency virus 1, E138K mutant, MT4, 120 h.

For data set [5], the system named is Human immunodeficiency virus 1. Description: Antiviral activity against drug-resistant HIV-1 Y181C mutant infected in human MT4 cells assessed as reduction in virus-induced cytopathic effect incubated for 5 days by MTT assay. The data set is classed as functional, organism-based. The note with it: Human immunodeficiency virus 1, Y181C mutant, MT4, 120 h.
Data set [6] can be described thus: Fold resistance, ratio of EC50 for antiviral activity against drug-resistant HIV-1 Y181C mutant infected in human MT4 cells to EC50 for antiviral activity against […] HIV-1 infected in human MT4 cells. It is filed as functional.
Data set [7] in a line: Selectivity index, ratio of CC50 for human MT4 cells to EC50 for antiviral activity against NNRTI resistant HIV-1 infected in human MT4 cells. The note with it: read-out: Ratio CC50/EC50. It is filed as toxicity, cell-based.
Data set [8] can be described thus: Fold resistance, ratio of EC50 for antiviral activity against drug-resistant HIV-1 L100I mutant infected in human MT4 cells to EC50 for antiviral activity against […] HIV-1 infected in human MT4 cells. It is filed as functional.
Data set [9] concerns Human immunodeficiency virus 1. Description: Antiviral activity against drug-resistant HIV-1 Y188L mutant infected in human MT4 cells assessed as reduction in virus-induced cytopathic effect incubated for 5 days by MTT assay. The note with it: Human immunodeficiency virus 1, Y188L mutant, MT4, 120 h. It is filed as functional, organism-based.
The test system of data set [10] is Human immunodeficiency virus 1. Description: Antiviral activity against drug-resistant HIV-1 K103 N mutant infected in human MT4 cells assessed as reduction in virus-induced cytopathic effect incubated for 5 days by MTT assay. It is filed as functional, organism-based. The conditions noted are these: Human immunodeficiency virus 1, K103 N mutant, MT4, 120 h.
Data set [11] is described as follows: Fold resistance, ratio of EC50 for antiviral activity against drug-resistant HIV-1 Y188L mutant infected in human MT4 cells to EC50 for antiviral activity against […] HIV-1 infected in human MT4 cells. The data set is classed as functional.
Data set [12] can be described thus: Fold resistance, ratio of EC50 for antiviral activity against drug-resistant HIV-1 K103 N mutant infected in human MT4 cells to EC50 for antiviral activity against […] HIV-1 infected in human MT4 cells. It is filed as functional.
In data set [13] the test system is Human immunodeficiency virus 1. Description: Antiviral activity against drug-resistant HIV-1 L100I mutant infected in human MT4 cells assessed as reduction in virus-induced cytopathic effect incubated for 5 days by MTT assay. It is filed as functional, organism-based. The note with it: Human immunodeficiency virus 1, L100I mutant, MT4, 120 h.
Data set [14] deals with Human immunodeficiency virus type 1 reverse transcriptase (Human immunodeficiency virus 1, UniProt Q72547). The experiment in a line: Inhibition of recombinant wild-type p66/p51 HIV-1 reverse transcriptase incubated for 40 mins by picogreen dye-based spectrofluorometric analysis.

Regarding `Cc1cccc(C(C#N)c2nc(SC(C)C)[nH]c(=O)c2C)c1` (centres undefined), the “Ratio EC50” value is recorded as 3 in data set [1]; 31 in data set [6]; 15 in data set [8]; 464 in data set [11]; 148 in data set [12]. The CC50 at 120 h in data set [2] worked out at 167 µM. The EC50 amounted to 141 nM in data set [3]; 370 nM in data set [4]; 4.41 µM in data set [5]; 65.4 µM in data set [9]; 20.9 µM in data set [10]; 2.06 µM in [13]. In addition, the selectivity ratio in data set [7] was determined as 1180. Besides, the IC50 in data set [14] is 271 nM.

Regarding `Cc1c(C(C#N)c2ccccc2)nc(SC(C)C)[nH]c1=O` (centres undefined), the “Ratio EC50” value is recorded as 2 in [1]; 25 in data set [6]; 28 in data set [8]; >550 in data set [11]; 185 in [12]. Also, in [2], the CC50 at 120 h is 204 µM. The EC50 in data set [3] is 370 nM; in [4], 870 nM; in [5], 9.21 µM; in data set [9] it was > 204 µM; in data set [10] it was 68.3 µM; in data set [13], 10.3 µM. For the same compound, in [7], the selectivity ratio is 547. For the same compound, the IC50 in [14] was 1510 nM.

Take `Cc1c(C(C#N)c2cccc(F)c2)nc(SC(C)C)[nH]c1=O` (centres undefined): the “Ratio EC50” value in [1] is 4; in data set [6], 26; in data set [8] it was 50; in [11], >753; in data set [12], 245. In addition, in data set [2], the CC50 at 120 h stood at 202 µM. Besides, the EC50 in data set [3] was 268 nM; in data set [4] it was 960 nM; in [5] it was 6.89 µM; in data set [9] it was > 202 µM; in [10], 65.6 µM; in data set [13] it was 13.5 µM. Moreover, the selectivity ratio in data set [7] was found to be 754. Moreover, the IC50 in data set [14] was 829 nM.

`Cc1c(C(C#N)c2cccc(Cl)c2)nc(SC(C)C)[nH]c1=O` (centres undefined): the “Ratio EC50” value in data set [1] is 2; in data set [6], 21; in data set [8], 32; in data set [11], >199; in data set [12], 144. The CC50 at 120 h in data set [2] stood at 172 µM. In addition, the EC50 was 350 nM in data set [3]; 870 nM in [4]; 7.27 µM in data set [5]; > 69.7 µM in data set [9]; 50.3 µM in data set [10]; 11.2 µM in data set [13]. In data set [7], the selectivity ratio stood at 493. Besides, the IC50 in [14] worked out at 713 nM.

As for `Cc1c(C(C#N)c2cc(F)cc(F)c2)nc(SC(C)C)[nH]c1=O` (centres undefined), the “Ratio EC50” value is 4 in data set [1]; 17 in data set [6]; 36 in [8]; >396 in [11]; 101 in data set [12]. Also, the CC50 at 120 h in data set [2] turned out to be 202 µM. Also, the EC50 in [3] was 510 nM; in [4], 1910 nM; in data set [5], 8.7 µM; in data set [9] it was > 202 µM; in data set [10], 51.5 µM; in data set [13], 18.5 µM. In addition, in data set [7], the selectivity ratio turned out to be 394. Besides, the IC50 in [14] is 1290 nM.

Consider `COc1cc(F)cc(C(C#N)c2nc(SC(C)C)[nH]c(=O)c2C)c1` (centres undefined), for which the “Ratio EC50” value in data set [1] amounted to 3; in data set [6], 43; in data set [8], 32; in [11], 442; in [12], 188. The CC50 at 120 h in data set [2] stood at 161 µM. Moreover, the EC50 is 123 nM in [3]; 350 nM in data set [4]; 5.23 µM in data set [5]; 54.4 µM in data set [9]; 23.1 µM in data set [10]; 3.94 µM in data set [13]. The selectivity ratio in data set [7] is 1310. In [14], the IC50 was 236 nM.

In the case of `Cc1c(C(C#N)c2c(Cl)cccc2Cl)nc(SC(C)C)[nH]c1=O` (centres undefined), the “Ratio EC50” value in [1] was 3; in [6], 48; in data set [8], 41; in data set [11], >750; in data set [12], >74. Moreover, the CC50 at 120 h in [2] turned out to be 62.2 µM. For the same compound, the EC50 in [3] was 83 nM; in data set [4], 220 nM; in data set [5], 3.99 µM; in data set [9], > 62.2 µM; in data set [10], 6.13 µM; in [13], 3.38 µM. In data set [7], the selectivity ratio was 749. The IC50 in data set [14] is 466 nM.

Take `Cc1c(C(C#N)c2cccnc2Cl)nc(SC(C)C)[nH]c1=O` (centres undefined): the “Ratio EC50” value was 1 in data set [1]; >53 in data set [6]; 21 in data set [8]; >221 in [11]; 47 in [12]. The half-maximal cytotoxic concentration (CC50) at 120 h in [2] is 251 µM. Moreover, the EC50 in [3] is 1140 nM; in data set [4] it was 1560 nM; in data set [5] it was > 60.9 µM; in data set [9] it was > 251 µM; in data set [10] it was 53.6 µM; in data set [13] it was 23.8 µM. Moreover, in data set [7], the selectivity ratio came to 221. In data set [14], the IC50 was determined as 13100 nM.

Consider `COc1ccc(C(C#N)c2nc(SC(C)C)[nH]c(=O)c2C)cc1` (centres undefined), for which the “Ratio EC50” value in data set [1] is reported as 1; in [6], >13; in data set [8] it was 3; in data set [11], >13; in data set [12], >13. Further, the CC50 at 120 h in [2] was 37.1 µM. Also, the EC50 was 2920 nM in data set [3]; 4290 nM in data set [4]; > 37.1 µM in [5]; > 37.1 µM in data set [9]; > 37.1 µM in [10]; 9.7 µM in data set [13]. For the same compound, the selectivity ratio in [7] was found to be 13. For the same compound, the IC50 in [14] amounted to 20700 nM.

On to `Cc1c(C(C#N)c2ccccc2F)nc(SC(C)C)[nH]c1=O` (centres undefined), for which the “Ratio EC50” value was 3 in [1]; 71 in data set [6]; 64 in data set [8]; >2051 in data set [11]; 192 in data set [12]. The CC50 at 120 h in [2] was found to be 113 µM. The EC50 is 55 nM in [3]; 170 nM in data set [4]; 3.92 µM in data set [5]; > 113 µM in data set [9]; 10.6 µM in [10]; 3.53 µM in [13]. In data set [7], the selectivity ratio amounted to 2030. Also, in data set [14], the concentration for half-maximal inhibition (IC50) came to 99 nM.

For the compound `Cc1c(C(C#N)c2ccccc2C(F)(F)F)nc(SC(C)C)[nH]c1=O` (centres undefined), the “Ratio EC50” value in data set [1] is 1; in data set [6] it was 4; in data set [8], 2; in data set [11], >96; in data set [12], >26. The CC50 at 120 h in [2] stood at 251 µM. The EC50 was 2610 nM in data set [3]; 3340 nM in data set [4]; 10.1 µM in [5]; > 251 µM in data set [9]; > 67.6 µM in data set [10]; 5.92 µM in data set [13]. For the same compound, the selectivity ratio in [7] was found to be 96. In addition, the IC50 in data set [14] is 5990 nM.

The record behind these values is ChEMBL document CHEMBL5137044, “Expansion of the S-CN-DABO scaffold to exploit the impact on inhibitory activities against the non-nucleoside HIV-1 reverse transcriptase” (Eur J Med Chem, 2022).
